Source: US20120184536A1, “COMPOSITIONS COMPRISING SPECIFIC UGT INHIBITORS AND METHODS OF USE THEREOF” (The Board of Trustees of the University of Arkansas, priority 2009, published 2012)
Where two headings read alike, the source gives them in different places.

Legend:
[1] = molecular target: T1, UGT1A10 (Homo sapiens, UniProt Q9HAW8); assay: Ki assays / kinetics and inhibition type, UGT1A10 (Example 1); conditions: read-out: Km (Substrate), Km of the aglycone substrate
T1 sequence (Q9HAW8 26-530): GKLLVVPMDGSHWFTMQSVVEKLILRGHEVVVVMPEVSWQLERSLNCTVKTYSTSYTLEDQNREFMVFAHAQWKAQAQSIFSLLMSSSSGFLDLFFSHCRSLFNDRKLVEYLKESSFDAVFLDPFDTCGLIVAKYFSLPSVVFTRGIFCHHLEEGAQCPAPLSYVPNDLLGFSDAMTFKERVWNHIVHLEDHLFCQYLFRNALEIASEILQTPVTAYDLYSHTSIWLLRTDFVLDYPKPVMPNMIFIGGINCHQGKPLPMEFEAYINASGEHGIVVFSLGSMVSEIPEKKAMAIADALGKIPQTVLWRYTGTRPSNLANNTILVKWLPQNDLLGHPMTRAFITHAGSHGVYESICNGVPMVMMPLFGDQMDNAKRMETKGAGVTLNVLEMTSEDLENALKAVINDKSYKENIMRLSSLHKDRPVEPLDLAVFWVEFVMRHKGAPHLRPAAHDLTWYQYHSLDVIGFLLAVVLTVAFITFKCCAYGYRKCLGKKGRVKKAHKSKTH
Experimental: (§5) Recombinant UGT Isoform Incubations—Recombinant human UGT2B7 was produced in HEK239 cells as previously described (6). UGT1A10 was produced as a His-tagged protein in baculovirus-infected Sf9 insect cells as previously described (7, 8). […] For inhibition assays, recombinant UGT membrane protein was incubated in reaction buffer with substrate, inhibitor, and co-substrate as previously described (6, 9).
(§6) Ki assays—UGT2B7 or 1A10 were incubated with a range of at least four different concentrations of inhibitor using varying concentrations of substrate (Ki(substrate)) with a fixed saturating concentration of cosubstrate or with varying concentrations of co-substrate (Ki(UDP-GlcUA)) and a fixed saturating concentration of substrate (FIG. 4).
(§7) The results of these experiments were analyzed and apparent kinetic and inhibition parameters were determined using Prism 4 software (GraphPad, San Diego, Calif.) and DynaFit (BioKin, Watertown, Mass.). TLC and HPLC Analysis—For inhibition assays using all substrates other than 7-OH-warfarin, aliquots (60 μl) of each incubation were analyzed using thin layer chromatography (TLC) as previously described (3). For inhibition assays using 7-OH-warfarin as a substrate, samples were analyzed using HPLC as described previously (10). Primary standards for the 7-OH-warfarin glucuronide were not available; therefore, product concentrations were estimated using the external standard response for the 7-OH-warfarin substrate.

[2] = molecular target: T1, UGT1A10; assay: Ki assays / kinetics and inhibition type, UGT1A10 (Example 2)
Experimental: Recombinant UGT Isoform Incubations—Recombinant human UGT1A10 and it mutants were produced in baculovirus-infected insect cells as previously described (6, 7). Synthesis of inhibitors was described previously (2). For inhibition assays, UGT recombinant membrane protein (5 μg) was incubated in reaction buffer ([…] Tris-HCl (pH 7.4)/5 mM MgCl2/5 mM saccharolactone) and 2% DMSO with substrate, inhibitor and co-substrate, UDP-GlcUA, in a total volume of 30 μl. Substrates were added in DMSO, and controls were run with each assay. No additional detergents or other activators were used in the incubations. Reactions were started by the addition of co-substrate and incubated at 37° C. (90 min for 8-hydroxywarfarin; 30 min for 4-MU; 30 min for E2). […] Reactions were stopped by addition of 40 μl of ethanol, and all incubations were performed in duplicate.
TLC Analysis—For inhibition assays using 4-MU, E2, and 8-OH warfarin as substrates, aliquots (60 μl) of each sample were analyzed using thin layer chromatography (TLC) as described previously (3).
Each sample was centrifuged at 14,000 rpm for 8 min to spin down the protein, and 60 μl of the supernatant was analyzed by HPLC as described previously (8).

[3] = molecular target: T2, UGT2B7 (Homo sapiens, UniProt P16662); assay: Ki assays / kinetics and inhibition type, UGT2B7 (Example 1); conditions: human
T2 sequence (P16662 24-529): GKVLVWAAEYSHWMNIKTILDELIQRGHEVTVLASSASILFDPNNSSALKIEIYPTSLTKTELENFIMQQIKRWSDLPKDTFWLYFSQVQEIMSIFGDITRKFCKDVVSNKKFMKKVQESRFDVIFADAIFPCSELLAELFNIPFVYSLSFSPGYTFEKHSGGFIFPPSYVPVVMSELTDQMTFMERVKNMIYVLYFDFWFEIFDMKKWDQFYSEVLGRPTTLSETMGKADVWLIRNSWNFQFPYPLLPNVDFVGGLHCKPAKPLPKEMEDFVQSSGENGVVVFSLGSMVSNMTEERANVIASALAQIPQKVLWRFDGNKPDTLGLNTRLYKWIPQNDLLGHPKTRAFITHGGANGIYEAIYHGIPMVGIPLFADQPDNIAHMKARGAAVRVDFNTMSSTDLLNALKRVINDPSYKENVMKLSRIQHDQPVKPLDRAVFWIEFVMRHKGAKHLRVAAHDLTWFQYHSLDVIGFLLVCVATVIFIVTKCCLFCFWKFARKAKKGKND
Experimental: as §5, §6, §7

[4] = molecular target: T3, UGT1A6 (Homo sapiens, UniProt P19224); conditions: cited from earlier work; for inhibition type toward UDP-GlcUA / inhibition type with 4-MU: 4-MU glucuronidation
T3 sequence (P19224 27-532): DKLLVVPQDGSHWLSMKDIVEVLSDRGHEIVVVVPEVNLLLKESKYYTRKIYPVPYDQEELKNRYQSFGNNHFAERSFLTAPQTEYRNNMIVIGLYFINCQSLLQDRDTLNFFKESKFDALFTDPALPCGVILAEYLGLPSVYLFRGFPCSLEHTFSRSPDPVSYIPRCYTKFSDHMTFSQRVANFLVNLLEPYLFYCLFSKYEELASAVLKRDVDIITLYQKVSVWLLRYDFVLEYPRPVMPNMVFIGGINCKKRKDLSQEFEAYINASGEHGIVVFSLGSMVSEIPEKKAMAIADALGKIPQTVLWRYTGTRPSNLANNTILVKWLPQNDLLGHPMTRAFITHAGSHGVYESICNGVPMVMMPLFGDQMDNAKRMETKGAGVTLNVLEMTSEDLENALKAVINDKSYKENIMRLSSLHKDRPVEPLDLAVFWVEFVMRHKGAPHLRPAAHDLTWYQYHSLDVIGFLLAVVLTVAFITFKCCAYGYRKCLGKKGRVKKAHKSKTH

[5] = molecular target: T4, UGT1A8 (Homo sapiens, UniProt Q9HAW9); assay: Screening assay, 4-MU glucuronidation by UGT1A8; format: biochemical; conditions: 250 μM 4-MU; 0, 50 or 200 μM inhibitor; FIG. 2 / FIG. 10
T4 sequence (Q9HAW9 26-530): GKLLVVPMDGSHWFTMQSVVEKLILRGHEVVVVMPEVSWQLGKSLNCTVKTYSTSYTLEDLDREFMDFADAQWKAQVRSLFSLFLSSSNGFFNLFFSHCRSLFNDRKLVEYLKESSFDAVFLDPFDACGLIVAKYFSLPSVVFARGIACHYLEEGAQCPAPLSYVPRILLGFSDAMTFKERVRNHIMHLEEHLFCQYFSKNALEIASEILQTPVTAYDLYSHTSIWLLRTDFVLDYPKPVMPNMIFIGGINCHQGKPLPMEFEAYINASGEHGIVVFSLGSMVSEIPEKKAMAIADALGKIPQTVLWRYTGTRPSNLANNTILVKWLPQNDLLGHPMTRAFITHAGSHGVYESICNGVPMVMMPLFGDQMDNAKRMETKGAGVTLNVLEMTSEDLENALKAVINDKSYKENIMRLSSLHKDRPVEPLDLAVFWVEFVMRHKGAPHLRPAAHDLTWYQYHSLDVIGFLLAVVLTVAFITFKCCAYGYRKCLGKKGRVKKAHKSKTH
Experimental: (§1) FIG. 2 depicts the effect of PP inhibitors on the glucuronidation by UGT1A6, 1A8, 1A10, and 2B7. Each enzyme was incubated with 250 μM of 4-MU or linoleic acid and 0 μM (black), 50 μM (grey), or 200 μM (white) of each inhibitor. Activities are normalized to percent maximal activity.
(§2) FIG. 10 depicts the effect of PP inhibitors on the glucuronidation of 4-MU by UGT1A6, 1A8, and 1A10. Each enzyme was incubated with 250 μM 4-MU and 0, 50, or 200 μM concentrations of each inhibitor. Activities are normalized to percent maximal activity.
(§3) Synthesis of inhibitors was described previously (2).
(§4) Recombinant UGT Isoform Incubations—Recombinant human UGT1A10 and it mutants were produced in baculovirus-infected insect cells as previously described (6, 7). Synthesis of inhibitors was described previously (2). For inhibition assays, UGT recombinant membrane protein (5 μg) was incubated in reaction buffer ([…] Tris-HCl (pH 7.4)/5 mM MgCl2/5 mM saccharolactone) and 2% DMSO with substrate, inhibitor and co-substrate, UDP-GlcUA, in a total volume of 30 μl. Substrates were added in DMSO, and controls were run with each assay. No additional detergents or other activators were used in the incubations. Reactions were started by the addition of co-substrate and incubated at 37° C. (90 min for 8-hydroxywarfarin; 30 min for 4-MU; 30 min for E2). […]

[6] = molecular target: T2, UGT2B7; assay: Screening assay, linoleic acid glucuronidation by UGT2B7; format: biochemical; set-up: made in house; host or cells: HEK239 cells (so in the source); conditions: 250 μM linoleic acid; 0, 50 or 200 μM inhibitor; FIG. 2
Experimental: as §1, §3

[7] = molecular target: T3, UGT1A6; assay: Screening assay, 4-MU glucuronidation by UGT1A6; format: biochemical; conditions: 250 μM 4-MU; 0, 50 or 200 μM inhibitor; FIG. 2 / FIG. 10
Experimental: as §1, §2, §3, §4

[8] = molecular target: T1, UGT1A10; assay: Screening assay, 4-MU glucuronidation by UGT1A10; format: biochemical; set-up: His; made in house; host or cells: baculovirus-infected Sf9 insect cells; conditions: 250 μM 4-MU; 0, 50 or 200 μM inhibitor; FIG. 2 / FIG. 10
Experimental: as §1, §2, §3, §4

[9] = molecular target: T2, UGT2B7; assay: IC50 assays, inhibition of UGT2B7 glucuronidation (Example 1); conditions: read-out: IC50 (Substrate), linoleic acid ~2 x Km, co-substrate in >5 fold excess
Experimental: (§8) Recombinant UGT Isoform Incubations—Recombinant human UGT2B7 was produced in HEK239 cells as previously described (6). […] For inhibition assays, recombinant UGT membrane protein was incubated in reaction buffer with substrate, inhibitor, and co-substrate as previously described (6, 9).
(§9) IC50 assays—UGT2B7 or 1A10 were incubated with fixed concentrations of each substrate and co-substrate and increasing concentrations of inhibitor.
as §7

[10] = molecular target: T2, UGT2B7
Experimental: as §8, §9, §7

[11] = substrate: C[C@]12CC[C@@H](O)C[C@@H]1CC[C@@H]1[C@@H]2CC[C@]2(C)C(=O)CC[C@@H]12; assay: purified protein, by the assay type; conditions: other: UGT2B7; Km of the aglycone substrate
[12] = substrate: O=[N+]([O-])c1ccc(O)cc1; assay: purified protein, by the assay type; conditions: other: UGT2B7; Km of the aglycone substrate
Experimental: as §5, §6, §7

[13] = read-out: Km (Substrate), UGT1A10, Km of the aglycone substrate, Example 2

C[C@]12CC[C@@H]3c4ccc(O)cc4CC[C@H]3[C@@H]1CC[C@@H]2O [E2, reference compound]
Km [1]: 46 ± 5 µM | Km [2]: 48.3 ± 9 µM

CC(=O)CC(c1ccccc1)c1c(O)c2cccc(O)c2oc1=O (stereo not drawn) [8-OH Warfarin, 8-hydroxywarfarin, reference compound]
Km [1]: 510 ± 70 µM | Km [2, 13]: 515 ± 17 µM

CC(=O)CC(c1ccccc1)c1c(O)c2ccc(O)cc2oc1=O (stereo not drawn) [7-OH Warfarin, 7-hydroxywarfarin, reference compound]
Km [1]: 450 ± 40 µM | Km [2, 13]: 497 ± 61 µM

CCCCC/C=C\C/C=C\CCCCCCCC(=O)O [Linoleic Acid, reference compound]
Km [3]: 160 ± 20 µM

CCCCCCCCCC(=O)NC(COC(=O)NS(=O)(=O)OCC1OC(n2ccc(=O)[nH]c2=O)C2OC(C)(C)OC12)Cc1ccccc1 (stereo not drawn) [PP50B]
inhibition type toward UDP-GlcUA [4]: competitive | inhibition type with 4-MU [4]: non-competitive | inhibition of 4-methylumbelliferone (4-MU) glucuronidation [4]: identified as inhibitors

CCCCCCCCCC(=O)NC(COC(=O)NS(=O)(=O)OCC1OC(n2ccc(=O)[nH]c2=O)C2OC(C)(C)OC12)C(O)c1ccccc1 (stereo not drawn) [PP37P]
inhibition type toward UDP-GlcUA [4]: competitive | inhibition type with 4-MU [4]: competitive | inhibition of 4-methylumbelliferone (4-MU) glucuronidation [4]: identified as inhibitors | effect on glucuronidation of 4-MU by UGT1A8 [5]: least effect | effect on glucuronidation of linoleic acid by UGT2B7 [6]: least effect | effect on glucuronidation of 4-MU by UGT1A6 [7]: least effect | effect on glucuronidation of 4-MU by UGT1A10 [8]: least effect

Cc1cc(=O)oc2cc(O)ccc12 [4-MU, 4-methylumbelliferone, reference compound]
Km [1]: 200 ± 20 µM | Km [2, 13]: 91.1 ± 19 µM

CCCCCCCCCC(=O)NC(COC(=O)NCC(=O)NCC1OC(n2ccc(=O)[nH]c2=O)C(O)C1O)C(O)c1ccccc1 (stereo not drawn) [PP36]
effect on glucuronidation of 4-MU by UGT1A8 [5]: least effect | effect on glucuronidation of linoleic acid by UGT2B7 [6]: least effect | IC50 [9]: 740 µM | effect on glucuronidation of 4-MU by UGT1A6 [7]: least effect | effect on glucuronidation of 4-MU by UGT1A10 [8]: least effect | IC50 [10]: 210 µM

CCCCCCCCCC(=O)NC(COC(=O)NS(=O)(=O)OCC1OC(n2ccc(=O)[nH]c2=O)C(O)C1O)C(O)c1ccccc1 (stereo not drawn) [PP37]
inhibition type toward UDP-GlcUA [4]: competitive | inhibition type with 4-MU [4]: competitive | inhibition of 4-methylumbelliferone (4-MU) glucuronidation [4]: identified as inhibitors

CCCCCCCCCC(=O)NC(COC(=O)CS(=O)(=O)OCC1OC(n2ccc(=O)[nH]c2=O)C(O)C1O)Cc1ccccc1 (stereo not drawn) [PP56B]
inhibition type toward UDP-GlcUA [4]: competitive | inhibition type with 4-MU [4]: competitive | inhibition of 4-methylumbelliferone (4-MU) glucuronidation [4]: identified as inhibitors

B1: UGT2B7 (Homo sapiens) (protein)
chain: GKVLVWAAEYSHWMNIKTILDELIQRGHEVTVLASSASILFDPNNSSALKIEIYPTSLTKTELENFIMQQIKRWSDLPKDTFWLYFSQVQEIMSIFGDITRKFCKDVVSNKKFMKKVQESRFDVIFADAIFPCSELLAELFNIPFVYSLSFSPGYTFEKHSGGFIFPPSYVPVVMSELTDQMTFMERVKNMIYVLYFDFWFEIFDMKKWDQFYSEVLGRPTTLSETMGKADVWLIRNSWNFQFPYPLLPNVDFVGGLHCKPAKPLPKEMEDFVQSSGENGVVVFSLGSMVSNMTEERANVIASALAQIPQKVLWRFDGNKPDTLGLNTRLYKWIPQNDLLGHPKTRAFITHGGANGIYEAIYHGIPMVGIPLFADQPDNIAHMKARGAAVRVDFNTMSSTDLLNALKRVINDPSYKENVMKLSRIQHDQPVKPLDRAVFWIEFVMRHKGAKHLRVAAHDLTWFQYHSLDVIGFLLVCVATVIFIVTKCCLFCFWKFARKAKKGKND
Km [11]: 22 ± 2 µM | Km [12]: 760 ± 130 µM
